≈ marks a conversion by molar mass, not a printed value.

T1 sequence (P48736 144-1102 limits assumed): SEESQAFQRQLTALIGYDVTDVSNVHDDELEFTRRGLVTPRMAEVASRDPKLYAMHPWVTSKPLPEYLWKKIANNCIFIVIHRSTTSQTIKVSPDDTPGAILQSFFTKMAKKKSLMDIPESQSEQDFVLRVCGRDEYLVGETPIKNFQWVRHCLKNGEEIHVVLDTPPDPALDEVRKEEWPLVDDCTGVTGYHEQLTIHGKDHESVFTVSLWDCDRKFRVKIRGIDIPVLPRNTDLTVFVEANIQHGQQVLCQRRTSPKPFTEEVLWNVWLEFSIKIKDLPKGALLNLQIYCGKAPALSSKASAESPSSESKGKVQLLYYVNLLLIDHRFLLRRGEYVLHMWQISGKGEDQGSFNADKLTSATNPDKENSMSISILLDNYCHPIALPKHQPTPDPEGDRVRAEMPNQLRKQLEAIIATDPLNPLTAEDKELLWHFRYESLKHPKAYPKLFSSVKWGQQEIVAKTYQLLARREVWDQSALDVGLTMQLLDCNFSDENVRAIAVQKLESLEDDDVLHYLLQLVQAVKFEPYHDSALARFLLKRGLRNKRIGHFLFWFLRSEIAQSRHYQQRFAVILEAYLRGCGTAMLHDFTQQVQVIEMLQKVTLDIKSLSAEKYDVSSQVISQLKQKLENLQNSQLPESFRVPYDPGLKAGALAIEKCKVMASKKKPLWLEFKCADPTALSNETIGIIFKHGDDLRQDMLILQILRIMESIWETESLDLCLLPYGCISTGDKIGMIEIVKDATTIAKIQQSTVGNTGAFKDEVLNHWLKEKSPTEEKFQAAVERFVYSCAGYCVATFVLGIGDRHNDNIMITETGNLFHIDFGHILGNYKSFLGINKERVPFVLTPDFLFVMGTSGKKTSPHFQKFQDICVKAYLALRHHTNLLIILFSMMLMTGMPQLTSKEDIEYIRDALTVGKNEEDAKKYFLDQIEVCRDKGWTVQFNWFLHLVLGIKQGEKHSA

The first data set addresses T1, PI3K gamma (Homo sapiens, UniProt P48736).
T1 construct: His tag (C); made in house; host or cells: construct from Roger Williams lab (pVL1393); baculovirus BV950; Tn5 (Trichoplusia ni) or TiniPro insect cells
Put plainly: PI3K gamma kinase assay (Kinase-Glo luminescence). The class given is biochemical. The following applies: read-out: PI3Kgamma/IC50. The protocol: In a more preferred assay, the kinase reaction is performed in a final volume of 10 μL per well of a low volume non binding CORNING, 384 well black plate (Cat. No. #3676). The final concentrations of ATP and phosphatidyl inositol (PI) in the assay are 1 μM and 10 μg/mL respectively. The reaction is started by the addition of ATP.
The components of the assay are added per well as follows:
50 nL test compounds in 90% DMSO per well, in columns 1-20, 8 concentrations (⅓ and 1/3.33 serial dilution step) in single. • Low control: […] of 90% DMSO in half the wells of columns 23-24 (0.45% in final). • High control: 50 nL of reference compound (e.g. compound of Example 7 in WO 2006/122806) in the other half of columns 23-24 (2.5 μM in final). • Standard: 50 nL of reference compound as just mentioned diluted as the test compounds in columns 21-22 • 20 mL ‘buffer’ are prepared per assay: • 200 μL of 1M TRIS HCl pH7.5 (10 mM in final) • 60 μL of 1M MgCl2 (3 mM in final) • 500 μL of 2M NaCl (50 mM in final) • 100 μL of 10% CHAPS (0.05% in final) • 200 μL of 100 mM DTT (1 mM in final) • 18.94 mL of nanopure water • 10 mL ‘PI’ are prepared per assay: • 200 μL of 1 mg/ml L-alpha-Phosphatidylinositol (Liver Bovine, Avanti Polar Lipids Cat. No. 840042C MW=909.12) prepared in 3% OctylGlucoside (10 μg/ml in final) • 9.8 mL of ‘buffer’ • 10 mL ‘ATP’ are prepared per assay: • 6.7 μL of 3 mM stock of ATP giving a final concentration of 1 μM per well • 10 mL of ‘buffer’ • 2.5 mL of each PI3K construct are prepared per assay in ‘PI’ with the following final concentration: • 10 nM PI3K alfa EMV B1075 • 25 nM beta EMV BV949 • 10 nM delta EMV BV1060 • 150 nM gamma EMV BV950 • 5 μL of ‘PI/PI3K’ are added per well. • 5 μl ‘ATP’ are added per well to start the reaction. • The plates are then incubated at room temperature for 60 minutes (alfa, beta, delta) or 120 minutes (gamma). • The reaction is terminated by the addition of 10 μL Kinase-Glo (Promega Cat. No. #6714). • The assay plates are read after 10 minutes in Synergy 2 reader (BioTek, Vermont USA) with an integration time of 100 milliseconds and sensitivity set to 191. • Output: The High control is around 60′000 counts and the Low control is 30′000 or lower • This luminescence assay gives a useful Z′ ratio between 0.4 and 0.7
PI3K gamma is purified in two chromatographic steps: immobilized metal affinity chromatography (IMAC) on a Ni Sepharose resin (GE Healthcare) and gel filtration (GFC) utilizing a Superdex 200 26/60 column (GE Healthcare). All buffers are chilled to 4° C. and lysis is performed chilled on ice. Column fractionation is performed rapidly at room temperature. Typically frozen insect cells are lysed in a hypertonic lysis buffer and applied to a prepared IMAC column. The resin is washed with 3-5 column volumes of lysis buffer, followed by 3-5 column volumes wash buffer containing 45 mM imidazole, and the target protein is then eluted with a buffer containing 250 mM imidazole. Fractions are analyzed by Coomassie stained SDS-PAGE gels, and fractions containing target protein are pooled and applied to a prepared GFC column. Fractions from the GFC column are analyzed by Coomassie stained SDS-PAGE gels, and fractions containing target protein are pooled. The final pool is dialyzed into a storage buffer containing 50% glycerol and stored at −20° C. The final pool is assayed for activity in the phosphoinostitol kinase assay.
IC50 is determined by a four parameter curve fitting routine that comes along with “excel fit”. A 4 Parameter logistic equation is used to calculate IC50 values (IDBS XLfit) of the percentage inhibition of each compound at 8 concentrations (usually 10, 3.0, 1.0, 0.3, 0.1, 0.030, 0.010 and 0.003 μM). Alternatively, IC50 values are calculated using idbsXLfit model 204, which is a 4 parameter logistic model.
Consider `COc1ccc(-c2ccc3ncc4c(c3c2)n(-c2cccnc2OC)c(=O)n4C)cn1` [Example 1.1, 1-(2-Methoxy-pyridin-3-yl)-8-(6-methoxy-pyridin-3-yl)-3-methyl-1,3-dihydro-imidazo[4,5-c]quinolin-2-one], for which the IC50 stood at 237 nM.
On the same count and under the same terms, in the case of `COc1ncccc1-n1c(=O)n(C)c2cnc3ccc(-c4cnc(N)c(C(F)(F)F)c4)cc3c21` [Example 1.3, 8-(6-Amino-5-trifluoromethyl-pyridin-3-yl)-1-(2-methoxy-pyridin-3-yl)-3-methyl-1,3-dihydro-imidazo[4,5-c]quinolin-2-one] it was 131 nM; in that of `CNc1ccc(-c2ccc3ncc4c(c3c2)n(-c2cccnc2OC)c(=O)n4C)cn1` [Example 1.4, 1-(2-Methoxy-pyridin-3-yl)-3-methyl-8-(6-methylamino-pyridin-3-yl)-1,3-dihydro-imidazo[4,5-c]quinolin-2-one], 227 nM; in that of `CCOc1ccc(-c2ccc3ncc4c(c3c2)n(-c2cccnc2OC)c(=O)n4C)cn1` [Example 1.5, 8-(6-Ethoxy-pyridin-3-yl)-1-(2-methoxy-pyridin-3-yl)-3-methyl-1,3-dihydro-imidazo[4,5-c]quinolin-2-one], 211 nM.
On the same count and under the same terms, in the case of `CCOc1ccc(-c2ccc3ncc4c(c3c2)n(-c2cccnc2C)c(=O)n4C)cn1` [Example 2.1, 8-(6-Ethoxy-pyridin-3-yl)-3-methyl-1-(2-methyl-pyridin-3-yl)-1,3-dihydro-imidazo[4,5-c]quinolin-2-one] it was 587 nM; in that of `CNc1ncc(-c2ccc3ncc4c(c3c2)n(-c2cccnc2C)c(=O)n4C)cn1` [Example 2.2, 3-Methyl-8-(2-methylamino-pyrimidin-5-yl)-1-(2-methyl-pyridin-3-yl)-1,3-dihydro-imidazo[4,5-c]quinolin-2-one], 331 nM; in that of `Cc1cccnc1-n1c(=O)n(C)c2cnc3ccc(-c4cnc5ccccc5c4)cc3c21` [Example 3.8, 3-Methyl-1-(3-methyl-pyridin-2-yl)-8-quinolin-3-yl-1,3-dihydro-imidazo[4,5-c]quinolin-2-one], 404 nM.
With `COc1ccc(-c2ccc3ncc4c(c3c2)n(-c2ncccc2C)c(=O)n4C)cn1` [Example 3.13, 8-(6-Methoxy-pyridin-3-yl)-3-methyl-1-(3-methyl-pyridin-2-yl)-1,3-dihydro-imidazo[4,5-c]quinolin-2-one], the IC50 worked out at 517 nM.
For `COc1ccc(-c2ccc3ncc4c(c3c2)n(-c2cccnc2)c(=O)n4C)cc1OC` [Example 5.2, 8-(3,4-Dimethoxy-phenyl)-3-methyl-1-pyridin-3-yl-1,3-dihydro-imidazo[4,5-c]quinolin-2-one], the IC50 was found to be 365 nM.
Same read-out and setting: in the case of `COc1ccc(-c2ccc3ncc4c(c3c2)n(-c2cccnc2)c(=O)n4C)cn1` [Example 5.4, 8-(6-Methoxy-pyridin-3-yl)-3-methyl-1-pyridin-3-yl-1,3-dihydro-imidazo[4,5-c]quinolin-2-one] it was 377 nM.

Tested on in the next data set: not listed separately
Put plainly: High-throughput equilibrium solubility at pH 6.8. The class given is physicochemical. The following applies: pH 6.8, aqueous buffer, thermodynamic from solid; read-out: HT-Eq Sol/pH 6.8. The method, boiled down:
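Solubility was measured at pH 6.8 following the cited Zhou et al. (2007) procedure.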
For the compound `CCOc1ccc(-c2ccc3ncc4c(c3c2)n(-c2cccnc2C)c(=O)n4C)cn1` [Example 2.1, 8-(6-Ethoxy-pyridin-3-yl)-3-methyl-1-(2-methyl-pyridin-3-yl)-1,3-dihydro-imidazo[4,5-c]quinolin-2-one], the solubility thermodynamic came out at 3 µg/mL (≈ 7.29 µM).
For `CNc1ncc(-c2ccc3ncc4c(c3c2)n(-c2cccnc2C)c(=O)n4C)cn1` [Example 2.2, 3-Methyl-8-(2-methylamino-pyrimidin-5-yl)-1-(2-methyl-pyridin-3-yl)-1,3-dihydro-imidazo[4,5-c]quinolin-2-one], the solubility thermodynamic was determined as 14 µg/mL (≈ 35.2 µM).
Turning to `CCOc1ccc(-c2ccc3ncc4c(c3c2)n(-c2ccc(N(C)C)nc2C)c(=O)n4C)cn1` [Example 19.3, 1-(6-Dimethylamino-2-methyl-pyridin-3-yl)-8-(6-ethoxy-pyridin-3-yl)-3-methyl-1,3-dihydro-imidazo[4,5-c]quinolin-2-one], the solubility thermodynamic was determined as 5 µg/mL (≈ 11 µM).
Same read-out and setting: in the case of `COc1cc(-c2ccc3ncc4c(c3c2)n(-c2ccc(N(C)C)nc2C)c(=O)n4C)cnc1CO` [Example 19.4, 1-(6-Dimethylamino-2-methyl-pyridin-3-yl)-8-(6-hydroxymethyl-5-methoxy-pyridin-3-yl)-3-methyl-1,3-dihydro-imidazo[4,5-c]quinolin-2-one] it was 110 µg/mL (≈ 234 µM); in that of `Cc1nc(N(C)C)ccc1-n1c(=O)n(C)c2cnc3ccc(-c4cncc(N)c4)cc3c21` [Example 19.5, 8-(5-Amino-pyridin-3-yl)-1-(6-dimethylamino-2-methyl-pyridin-3-yl)-3-methyl-1,3-dihydro-imidazo[4,5-c]quinolin-2-one], 10 µg/mL (≈ 23.5 µM); in that of `COCC(=O)Nc1ccc(-n2c(=O)n(C)c3cnc4ccc(-c5cncc(N)c5)cc4c32)c(C)n1` [Example 20.1, N-{5-[8-(5-Amino-pyridin-3-yl)-3-methyl-2-oxo-2,3-dihydro-imidazo[4,5-c]quinolin-1-yl]-6-methyl-pyridin-2-yl}-2-methoxy-acetamide], 28 µg/mL (≈ 59.6 µM).

These data come from patent US20100311714A1, “1H-IMIDAZO[4,5-c]QUINOLINONE COMPOUNDS” (priority 2009, published 2010).
